From ChEMBL document CHEMBL4680351, “Antimicrobial and cytotoxic effects of ammonium derivatives of diterpenoids steviol and isosteviol” (Bioorg Med Chem, 2021)
Converted amounts (≈) assume the structure as drawn. The source made the active and inactive calls. The calls are words filed in the database; no cut-off is given here. Non-standard residues stand in square brackets, D forms with d. Residues, ends and D or L forms follow the SMILES beside them. Orn = NCCC[C@H](N)C(=O)O

Experiments:
[1] = Hemolytic activity against human erythrocytes after 1 hr by digital photoelectric colorimetric method; format: ADME, cell-based, Erythrocyte
[2] = system: Staphylococcus aureus; assay: Antibacterial activity against Staphylococcus aureus MRSA-1 assessed as bacterial growth inhibition in Mueller-Hinton broth 2 measured every 24 hrs for 5 days by serial dilution method; format: functional; settings: MRSA-1, 120 h, time 5 day
[3] = system: Staphylococcus aureus; assay: Antibacterial activity against Staphylococcus aureus MRSA-2 assessed as bacterial growth inhibition in Mueller-Hinton broth 2 measured every 24 hrs for 5 days by serial dilution method; format: functional; settings: MRSA-2, 120 h, time 5 day
[4] = system: Staphylococcus aureus; assay: Antibacterial activity against Staphylococcus aureus 209P assessed as bacterial growth inhibition; format: functional
[5] = system: Staphylococcus aureus; assay: Bactericidal activity against Staphylococcus aureus MRSA-1 measured every 24 hrs for 5 days by serial dilution method; format: functional; settings: MRSA-1, 120 h, time 5 day
[6] = system: Staphylococcus aureus; assay: Bactericidal activity against Staphylococcus aureus MRSA-2 measured every 24 hrs for 5 days by serial dilution method; format: functional; settings: MRSA-2, 120 h, time 5 day
[7] = system: Staphylococcus aureus; assay: Bactericidal activity against Staphylococcus aureus 209P measured every 24 hrs for 5 days by serial dilution method; format: functional; settings: 120 h, time 5 day
[8] = system: HeLa; assay: Cytotoxicity against human HeLa cells assessed as reduction in cell viability by DAPI staining based assay
[9] = system: MCF7; assay: Cytotoxicity against human MCF7 cells assessed as reduction in cell viability by DAPI staining based assay; format: functional
[10] = system: A549; assay: Cytotoxicity against human A549 cells assessed as reduction in cell viability by DAPI staining based assay
[11] = system: HepG2; assay: Cytotoxicity against human HepG2 cells assessed as reduction in cell viability by DAPI staining based assay
[12] = system: PC-3; assay: Cytotoxicity against human PC-3 cells assessed as reduction in cell viability by DAPI staining based assay
[13] = system: T98G; assay: Cytotoxicity against human T98G cells assessed as reduction in cell viability by DAPI staining based assay
[14] = system: WI-38; assay: Cytotoxicity against human WI-38 cells assessed as reduction in cell viability by DAPI staining based assay
[15] = system: Staphylococcus aureus; assay: Bacteriostatic activity against Staphylococcus aureus MRSA-2 measured every 24 hrs for 5 days by serial dilution method; format: functional, organism-based; settings: time 5.0 day
[16] = system: Staphylococcus aureus; assay: Bacteriostatic activity against Staphylococcus aureus MRSA-2 measured every 24 hrs for 5 days by serial dilution method relative to amoxicillin; format: functional; settings: time 5 day
[17] = system: Cell membrane; assay: Induction of cytoplasmic membrane damage in Staphylococcus aureus 209P assessed as crystal violet absorption at 0.7 uM after 30 mins by crystal violet staining based microplate reader analysis (reference value: […] %); format: subcellular
[18] = system: Cell membrane; assay: Induction of cytoplasmic membrane damage in Staphylococcus aureus 209P assessed as crystal violet absorption at 1.5 uM after 30 mins by crystal violet staining based microplate reader analysis (reference value: […] %); format: subcellular
[19] = system: Cell membrane; assay: Induction of cytoplasmic membrane damage in Staphylococcus aureus 209P assessed as crystal violet absorption at 3 uM after 30 mins by crystal violet staining based microplate reader analysis (reference value: […] %); format: subcellular
[20] = system: Cell membrane; assay: Induction of cytoplasmic membrane damage in Staphylococcus aureus 209P assessed as crystal violet absorption at 6 uM after 30 mins by crystal violet staining based microplate reader analysis (reference value: […] %); format: subcellular
[21] = system: Staphylococcus aureus; assay: Induction of morphological changes in Staphylococcus aureus 209P assessed as cell lysis at 3 uM by TEM analysis; format: functional, organism-based
[22] = system: Staphylococcus aureus; assay: Induction of morphological changes in Staphylococcus aureus 209P assessed as change in cytoplasmic content at 3 uM by TEM analysis; format: functional, organism-based
[23] = system: Staphylococcus aureus; assay: Induction of morphological changes in Staphylococcus aureus 209P assessed as cytoplasmic disintegration at 3 uM by TEM analysis; format: functional, organism-based
[24] = system: Staphylococcus aureus; assay: Induction of morphological changes in Staphylococcus aureus 209P assessed as cell wall damage at 3 uM by TEM analysis; format: functional, organism-based
[25] = Selectivity index, ratio of IC50 for human WI-38 cells to IC50 for human HeLa cells; format: toxicity; settings: WI-38 cells versus HeLa cells, read-out: Ratio IC50
[26] = Selectivity index, ratio of IC50 for human WI-38 cells to IC50 for human MCF7 cells; format: toxicity; settings: WI-38 cells versus MCF7 cells, read-out: Ratio IC50
[27] = Selectivity index, ratio of IC50 for human WI-38 cells to IC50 for human A549 cells; format: toxicity; settings: WI-38 cells versus A549 cells, read-out: Ratio IC50
[28] = Selectivity index, ratio of IC50 for human WI-38 cells to IC50 for human HepG2 cells; format: toxicity; settings: WI-38 cells versus HepG2 cells, read-out: Ratio IC50
[29] = Selectivity index, ratio of IC50 for human WI-38 cells to IC50 for human PC-3 cells; format: toxicity; settings: WI-38 cells versus PC-3 cells, read-out: Ratio IC50
[30] = Selectivity index, ratio of IC50 for human WI-38 cells to IC50 for human T98G cells; format: toxicity; settings: WI-38 cells versus T98G cells, read-out: Ratio IC50
[31] = system: MCF7; assay: Induction of apoptosis in human MCF7 cells assessed as viable cells at 5 uM after 24 hrs by annexin V-FITC and propidium iodide staining based flow cytometry (reference value: 91.42 %); format: functional; settings: read-out: Activity
[32] = system: MCF7; assay: Induction of apoptosis in human MCF7 cells assessed as early apoptotic cells at 5 uM after 24 hrs by annexin V-FITC and propidium iodide staining based flow cytometry (reference value: 5.03 %); format: functional
[33] = system: MCF7; assay: Induction of apoptosis in human MCF7 cells assessed as late apoptotic cells at 5 uM after 24 hrs by annexin V-FITC and propidium iodide staining based flow cytometry (reference value: 3.4 %); format: functional
[34] = system: MCF7; assay: Induction of apoptosis in human MCF7 cells assessed as dead cells at 5 uM after 24 hrs by annexin V-FITC and propidium iodide staining based flow cytometry (reference value: 0.15 %); format: functional
[35] = system: MCF7; assay: Induction of apoptosis in human MCF7 cells assessed as viable cells at 10 uM after 24 hrs by annexin V-FITC and propidium iodide staining based flow cytometry (reference value: 91.42 %); format: functional; settings: read-out: Activity
[36] = system: MCF7; assay: Induction of apoptosis in human MCF7 cells assessed as early apoptotic cells at 10 uM after 24 hrs by annexin V-FITC and propidium iodide staining based flow cytometry (reference value: 5.03 %); format: functional
[37] = system: MCF7; assay: Induction of apoptosis in human MCF7 cells assessed as late apoptotic cells at 10 uM after 24 hrs by annexin V-FITC and propidium iodide staining based flow cytometry (reference value: 3.4 %); format: functional
[38] = system: MCF7; assay: Induction of apoptosis in human MCF7 cells assessed as dead cells at 10 uM after 24 hrs by annexin V-FITC and propidium iodide staining based flow cytometry (reference value: 0.15 %); format: functional
[39] = system: MCF7; assay: Induction of mitochondrial membrane potential loss in human MCF7 cells assessed as cell population with intact mitochondrial membrane potential at 5 uM after 24 hrs by JC-10 staining-based flow cytometric analysis (reference value: 98.73 %); format: functional
[40] = system: MCF7; assay: Induction of mitochondrial membrane potential loss in human MCF7 cells assessed as cell population with mitochondrial membrane potential collapse at 5 uM after 24 hrs by JC-10 staining-based flow cytometric analysis (reference value: 1.05 %); format: functional
[41] = system: MCF7; assay: Induction of mitochondrial membrane potential loss in human MCF7 cells assessed as cell population with intact mitochondrial membrane potential at 10 uM after 24 hrs by JC-10 staining-based flow cytometric analysis (reference value: 98.73 %); format: functional
[42] = system: MCF7; assay: Induction of mitochondrial membrane potential loss in human MCF7 cells assessed as cell population with mitochondrial membrane potential collapse at 10 uM after 24 hrs by JC-10 staining-based flow cytometric analysis (reference value: 1.05 %); format: functional
[43] = system: MCF7; assay: Induction of apoptosis in human MCF7 cells assessed as activation of caspase-9 at 5 uM after 24 hrs by fluorescence assay relative to control; format: functional
[44] = system: MCF7; assay: Induction of apoptosis in human MCF7 cells assessed as activation of caspase-8 at 5 uM after 24 hrs by fluorescence assay; format: functional, cell-based
[45] = system: MCF7; assay: Induction of apoptosis in human MCF7 cells assessed as activation of JNK at 5 uM after 24 hrs by fluorescence assay; format: functional, cell-based
[46] = system: Staphylococcus aureus; assay: Bacteriostatic activity against Staphylococcus aureus MRSA-1 measured every 24 hrs for 5 days by serial dilution method; format: functional, organism-based
[47] = system: MCF7; assay: Induction of apoptosis in human MCF7 cells assessed as activation of Bad at 5 uM after 24 hrs by fluorescence assay; format: functional, cell-based
[48] = system: MCF7; assay: Induction of apoptosis in human MCF7 cells assessed as activation of Akt at 5 uM after 24 hrs by fluorescence assay; format: functional, cell-based
[49] = system: MCF7; assay: Induction of apoptosis in human MCF7 cells assessed as activation of p53 at 5 uM after 24 hrs by fluorescence assay; format: functional, cell-based
[50] = system: MCF7; assay: Induction of apoptosis in human MCF7 cells assessed as activation of Bcl-2 at 5 uM after 24 hrs by fluorescence assay; format: functional, cell-based
[51] = system: Staphylococcus aureus; assay: Antibacterial activity against Staphylococcus aureus 209P assessed as bacterial growth inhibition in Mueller-Hinton broth 2 measured every 24 hrs for 5 days by serial dilution method; format: functional; settings: 120 h, time 5 day

CC(C)C[C@@H]1NC(=O)[C@H](CCCN)NC(=O)[C@H](C(C)C)NC(=O)[C@@H]2CCCN2C(=O)[C@@H](Cc2ccccc2)NC(=O)[C@H](CC(C)C)NC(=O)[C@H](CCCN)NC(=O)[C@H](C(C)C)NC(=O)[C@@H]2CCCN2C(=O)[C@@H](Cc2ccccc2)NC1=O [GRAMICIDIN S] (cyclo(L[dF]PV[Orn]L[dF]PV[Orn]))
HC50 at 1 h [1]: 9.4 µM

C[C@@]12CC[C@@H]3[C@@](CC[C@H]4[C@@]3(C)CCC[C@@]4(C)C(=O)OCC[N+](C)(C)Cc3ccccc3)(CC1=O)C2
MIC [2]: 223 µM | MIC [3]: 112 µM | MIC [4]: 55.8 µM | MBC [5]: 223 µM | MBC [6]: 112 µM | MBC [7]: 55.8 µM | HC50 at 1 h [1]: > 100 µM | IC50 [8]: > 100 µM | IC50 [9]: > 100 µM | IC50 [10]: > 100 µM | IC50 [11]: > 100 µM | IC50 [12]: > 100 µM | IC50 [13]: > 100 µM | IC50 [14]: > 100 µM

C[C@@]12CC[C@@H]3[C@@](CC[C@H]4[C@@]3(C)CCC[C@@]4(C)C(=O)OCC[N+](C)(C)CCCCCCCCCCCC[N+](C)(C)CCOC(=O)[C@]3(C)CCC[C@@]4(C)[C@@H]5CC[C@@]6(C)C[C@]5(CC[C@@H]43)CC6=O)(CC1=O)C2.[Br-].[Br-]
MIC [2]: 2.8 µM | MIC [3]: 1.4 µM | MIC [4]: 0.7 µM | MBC [5]: 2.8 µM | MBC [6]: 1.4 µM | MBC [7]: 0.7 µM | Activity [15]: Active | fold change (FC) [16]: 15 | Activity [17]: 7% | Activity [18]: 13% | Activity [19]: 24% | Activity [20]: 63% | Activity [21]: Active | Activity [22]: Active | Activity [23]: Active | Activity [24]: Active | HC50 at 1 h [1]: 20.3 µM | IC50 [8]: 22 µM | IC50 [9]: 5 µM | IC50 [10]: 12.5 µM | IC50 [11]: 19.5 µM | IC50 [12]: 13 µM | IC50 [13]: 39.6 µM | IC50 [14]: 25 µM | selectivity ratio [25]: 1.1 | selectivity ratio [26]: 5 | selectivity ratio [27]: 2 | selectivity ratio [28]: 1.3 | selectivity ratio [29]: 1.9 | selectivity ratio [30]: 0.6 | viability at 5 µM [31]: 29.9% | Activity [32]: 27.59% | Activity [33]: 25.95% | Activity [34]: 16.61% | viability at 10 µM [35]: 24.9% | Activity [36]: 41.39% | Activity [37]: 28.47% | Activity [38]: 5.24% | Activity [39]: 88.28% | Activity [40]: 11.65% | Activity [41]: 7.76% | Activity [42]: 92.1% | fold change (FC) [43]: >=2 | Activity [44]: inactive | Activity [45]: Active | Activity [46]: Active | Activity [47]: Active | Activity [48]: Active | Activity [49]: Active | Activity [50]: inactive

CC1(C)S[C@@H]2[C@H](NC(=O)[C@H](N)c3ccc(O)cc3)C(=O)N2[C@H]1C(=O)O [AMOXICILLIN]
MIC [2]: 85.7 µM (≈ 31.3 µg/mL) | MIC [3]: 85.7 µM (≈ 31.3 µg/mL) | MIC [51]: 0.7 µM (≈ 0.256 µg/mL) | MBC [5]: 85.7 µM (≈ 31.3 µg/mL) | MBC [6]: 85.7 µM (≈ 31.3 µg/mL) | MBC [7]: 2.5 µM (≈ 0.914 µg/mL)

O=C(O)c1cn(C2CC2)c2cc(N3CCNCC3)c(F)cc2c1=O [CIPROFLOXACIN]
MIC [2]: 377 µM (≈ 125 µg/mL) | MIC [3]: 2.7 µM (≈ 0.895 µg/mL) | MIC [51]: 1.5 µM (≈ 0.497 µg/mL) | MBC [5]: 755 µM (≈ 250 µg/mL) | MBC [6]: 2.7 µM (≈ 0.895 µg/mL) | MBC [7]: 1.5 µM (≈ 0.497 µg/mL)
